≈ marks a conversion by molar mass, not a printed value. Calls of active or inactive are those of the source. The calls are words filed in the database; no cut-off is given here.
Experiments:
Assay type in all cases: functional
Aspergillus flavus [1] = assay: Antifungal activity against Aspergillus flavus
Aspergillus flavus [2] = assay: Antifungal activity against Aspergillus flavus after 72 to 96 hrs by broth dilution method
Aspergillus niger [3] = assay: Antifungal activity against Aspergillus niger
Fusarium [4] = assay: Antifungal activity against Fusarium after 72 to 96 hrs by broth dilution method
Fusarium [5] = assay: Antifungal activity against Fusarium
Aspergillus niger [6] = assay: Antifungal activity against Aspergillus niger after 72 to 96 hrs by broth dilution method
Rhizopus [7] = assay: Antifungal activity against Rhizopus after 72 to 96 hrs by broth dilution method
Rhizopus [8] = assay: Antifungal activity against Rhizopus
Penicillium [9] = assay: Antifungal activity against Penicillium
Penicillium [10] = assay: Antifungal activity against Penicillium after 72 to 96 hrs by broth dilution method
Klebsiella pneumoniae [11] = assay: Antibacterial activity against Klebsiella pneumoniae
Klebsiella pneumoniae [12] = assay: Antibacterial activity against Klebsiella pneumoniae after 24 hrs by broth dilution method
Pseudomonas aeruginosa [13] = assay: Antibacterial activity against Pseudomonas aeruginosa
Escherichia coli [14] = assay: Antibacterial activity against Escherichia coli
Pseudomonas aeruginosa [15] = assay: Antibacterial activity against Pseudomonas aeruginosa after 24 hrs by broth dilution method
Escherichia coli [16] = assay: Antibacterial activity against Escherichia coli after 24 hrs by broth dilution method
Bacillus subtilis [17] = assay: Antibacterial activity against Bacillus subtilis
Bacillus subtilis [18] = assay: Antibacterial activity against Bacillus subtilis after 24 hrs by broth dilution method
Enterococcus faecalis [19] = assay: Antibacterial activity against Streptococcus faecalis
Enterococcus faecalis [20] = assay: Antibacterial activity against Streptococcus faecalis after 24 hrs by broth dilution method

SMILES | inhibition zone (IZ) (Aspergillus flavus [1]) | MIC (Aspergillus flavus [2]) [µg/mL] | inhibition zone (IZ) (Aspergillus niger [3]) | MIC (Fusarium [4]) [µg/mL] | inhibition zone (IZ) (Fusarium [5]) | MIC (Aspergillus niger [6]) [µg/mL] | MIC (Rhizopus [7]) [µg/mL] | inhibition zone (IZ) (Rhizopus [8]) | inhibition zone (IZ) (Penicillium [9]) | MIC (Penicillium [10]) [µg/mL] | inhibition zone (IZ) (Klebsiella pneumoniae [11]) | MIC (Klebsiella pneumoniae [12]) [µg/mL] | inhibition zone (IZ) (Pseudomonas aeruginosa [13]) | inhibition zone (IZ) (Escherichia coli [14]) [mm] | MIC (Pseudomonas aeruginosa [15]) [µg/mL] | MIC (Escherichia coli [16]) [µg/mL] | inhibition zone (IZ) (Bacillus subtilis [17]) [mm] | MIC (Bacillus subtilis [18]) [µg/mL] | inhibition zone (IZ) (Enterococcus faecalis [19]) | MIC (Enterococcus faecalis [20]) [µg/mL]
CC(C)C1/C(=N/OC(=O)Oc2ccccc2)CC(c2ccccc2)N(C)C1c1ccccc1 (stereo not given) | 17 mm | 50 (≈ 113 µM) | 12 mm | 25 (≈ 56.5 µM) | 17 mm | 50 (≈ 113 µM) | 25 (≈ 56.5 µM) | 17 mm | 17 mm | 25 (≈ 56.5 µM) | 22 mm | 6.25 (≈ 14.1 µM) | 22 mm | 17 | 6.25 (≈ 14.1 µM) | 25 (≈ 56.5 µM) | 17 | 25 (≈ 56.5 µM) | 17 mm | 25 (≈ 56.5 µM)
CN[C@@H]1[C@H](O[C@H]2[C@H](O[C@H]3[C@H](O)[C@@H](O)[C@H](N=C(N)N)[C@@H](O)[C@@H]3N=C(N)N)O[C@@H](C)[C@]2(O)C=O)O[C@@H](CO)[C@H](O)[C@H]1O [STREPTOMYCIN] | – | – | – | – | – | – | – | – | – | – | 26 mm | 25 (≈ 43 µM) | 26 mm | 28 | 25 (≈ 43 µM) | 12.5 (≈ 21.5 µM) | 28 | 12.5 (≈ 21.5 µM) | 22 mm | 50 (≈ 86 µM)
CC(C)C1/C(=N/O)CC(c2ccccc2)N(C)C1c1ccccc1 (stereo not given) | inactive | 200 (≈ 620 µM) | inactive | 200 (≈ 620 µM) | inactive | 200 (≈ 620 µM) | 50 (≈ 155 µM) | 12 mm | 12 mm | 100 (≈ 310 µM) | inactive | 200 (≈ 620 µM) | 12 mm | 17 | 200 (≈ 620 µM) | 50 (≈ 155 µM) | 12 | 25 (≈ 77.5 µM) | 12 mm | 50 (≈ 155 µM)
COC(=O)O/N=C1\CC(c2ccccc2)N(C)C(c2ccccc2)C1C (stereo not given) | 12 mm | 100 (≈ 284 µM) | inactive | 200 (≈ 567 µM) | inactive | 200 (≈ 567 µM) | 200 (≈ 567 µM) | inactive | inactive | 200 (≈ 567 µM) | inactive | 200 (≈ 567 µM) | inactive | 12 | 200 (≈ 567 µM) | 50 (≈ 142 µM) | 12 | 50 (≈ 142 µM) | inactive | 200 (≈ 567 µM)
CCC1/C(=N/OC(=O)OC(C)Cl)CC(c2ccccc2)N(C)C1c1ccccc1 (stereo not given) | 17 mm | 25 (≈ 60.3 µM) | 17 mm | 12.5 (≈ 30.1 µM) | 22 mm | 25 (≈ 60.3 µM) | 25 (≈ 60.3 µM) | 17 mm | 17 mm | 25 (≈ 60.3 µM) | 32 mm | 6.25 (≈ 15.1 µM) | 22 mm | 22 | 12.5 (≈ 30.1 µM) | 12.5 (≈ 30.1 µM) | 17 | 25 (≈ 60.3 µM) | 22 mm | 12.5 (≈ 30.1 µM)
CC1/C(=N/O)CC(c2ccccc2)N(C)C1c1ccccc1 (stereo not given) | inactive | 200 (≈ 679 µM) | inactive | 200 (≈ 679 µM) | inactive | 200 (≈ 679 µM) | 100 (≈ 340 µM) | 12 mm | inactive | 200 (≈ 679 µM) | inactive | 200 (≈ 679 µM) | inactive | 12 | 200 (≈ 679 µM) | 100 (≈ 340 µM) | 12 | 100 (≈ 340 µM) | inactive | 200 (≈ 679 µM)
C[C@@H]1[C@H](O)[C@@H](C)/C=C/C=C/C=C/C=C/C=C/C=C/C=C/[C@H](O[C@@H]2O[C@H](C)[C@@H](O)[C@H](N)[C@@H]2O)C[C@@H]2O[C@](O)(C[C@@H](O)C[C@@H](O)[C@H](O)CC[C@@H](O)C[C@@H](O)CC(=O)O[C@H]1C)C[C@H](O)[C@H]2C(=O)O [AMPHOTERICIN B] | 22 mm | 50 (≈ 54.1 µM) | 21 mm | 25 (≈ 27.1 µM) | 22 mm | 50 (≈ 54.1 µM) | 25 (≈ 27.1 µM) | 21 mm | 22 mm | 25 (≈ 27.1 µM) | – | – | – | – | – | – | – | – | – | –
CC1/C(=N/OC(=O)Oc2ccccc2)CC(c2ccccc2)N(C)C1c1ccccc1 (stereo not given) | 12 mm | 50 (≈ 121 µM) | 12 mm | 25 (≈ 60.3 µM) | 12 mm | 100 (≈ 241 µM) | 50 (≈ 121 µM) | 12 mm | 12 mm | 50 (≈ 121 µM) | 17 mm | 12.5 (≈ 30.2 µM) | 12 mm | 17 | 25 (≈ 60.3 µM) | 12.5 (≈ 30.2 µM) | 12 | 25 (≈ 60.3 µM) | 17 mm | 25 (≈ 60.3 µM)
CCOC(=O)O/N=C1\CC(c2ccccc2)N(C)C(c2ccccc2)C1C(C)C (stereo not given) | 12 mm | 100 (≈ 253 µM) | inactive | 200 (≈ 507 µM) | inactive | 200 (≈ 507 µM) | 200 (≈ 507 µM) | inactive | inactive | 200 (≈ 507 µM) | inactive | 200 (≈ 507 µM) | inactive | 17 | 200 (≈ 507 µM) | 12.5 (≈ 31.7 µM) | 12 | 12.5 (≈ 31.7 µM) | 12 mm | 50 (≈ 127 µM)
CCOC(=O)O/N=C1\CC(c2ccccc2)N(C)C(c2ccccc2)C1C (stereo not given) | 12 mm | 100 (≈ 273 µM) | inactive | 200 (≈ 546 µM) | inactive | 200 (≈ 546 µM) | 200 (≈ 546 µM) | inactive | inactive | 200 (≈ 546 µM) | inactive | 200 (≈ 546 µM) | inactive | 12 | 200 (≈ 546 µM) | 50 (≈ 136 µM) | 12 | 50 (≈ 136 µM) | inactive | 200 (≈ 546 µM)
CCC1/C(=N/O)CC(c2ccccc2)N(C)C1c1ccccc1 (stereo not given) | inactive | 200 (≈ 648 µM) | inactive | 200 (≈ 648 µM) | inactive | 200 (≈ 648 µM) | 100 (≈ 324 µM) | 12 mm | inactive | 200 (≈ 648 µM) | inactive | 200 (≈ 648 µM) | inactive | 12 | 200 (≈ 648 µM) | 50 (≈ 162 µM) | 12 | 50 (≈ 162 µM) | 12 mm | 200 (≈ 648 µM)
CCOC(=O)O/N=C1\CC(c2ccccc2)N(C)C(c2ccccc2)C1CC (stereo not given) | inactive | 200 (≈ 526 µM) | inactive | 200 (≈ 526 µM) | inactive | 200 (≈ 526 µM) | 100 (≈ 263 µM) | 12 mm | inactive | 200 (≈ 526 µM) | inactive | 200 (≈ 526 µM) | inactive | 12 | 200 (≈ 526 µM) | 25 (≈ 65.7 µM) | 12 | 25 (≈ 65.7 µM) | 12 mm | 100 (≈ 263 µM)
CCC1/C(=N/OC(=O)OC)CC(c2ccccc2)N(C)C1c1ccccc1 (stereo not given) | inactive | 200 (≈ 546 µM) | inactive | 200 (≈ 546 µM) | inactive | 200 (≈ 546 µM) | 100 (≈ 273 µM) | 12 mm | inactive | 200 (≈ 546 µM) | inactive | 200 (≈ 546 µM) | inactive | 12 | 200 (≈ 546 µM) | 25 (≈ 68.2 µM) | 12 | 25 (≈ 68.2 µM) | 12 mm | 100 (≈ 273 µM)
CCC1/C(=N/OC(=O)Oc2ccccc2)CC(c2ccccc2)N(C)C1c1ccccc1 (stereo not given) | 17 mm | 50 (≈ 117 µM) | 17 mm | 50 (≈ 117 µM) | 17 mm | 50 (≈ 117 µM) | 25 (≈ 58.3 µM) | 17 mm | 17 mm | 25 (≈ 58.3 µM) | 22 mm | 6.25 (≈ 14.6 µM) | 17 mm | 12 | 12.5 (≈ 29.2 µM) | 25 (≈ 58.3 µM) | 17 | 25 (≈ 58.3 µM) | 17 mm | 25 (≈ 58.3 µM)

Reference: ChEMBL document CHEMBL2380238, “Synthesis, spectral and antimicrobial evaluation of some novel 1-methyl-3-alkyl-2,6-diphenylpiperidin-4-one oxime carbonates” (2013)
